Assay results from patent publication US20120064056A1, “DICHLORACETATE IN COMBINATION WITH CLINICALLY HIGH LEVELS OF CARDIOPROTECTIVE OR HEMODYNAMIC DRUGS” (THE GOVERNORS OF THE UNIVERSITY OF ALBERTA TEC Edmonton, priority 2002, published 2012).

Assays:
isolated rat hearts = experiment: Isolated working rat heart, aerobic perfusion: glycolysis and glucose oxidation; parameters: glycolytic rates (glycolysis) / glucose oxidation rates: unit not given here; conditions: normal hearts, aerobic, DCA 2 mM, digoxin 3 nM, diltiazem 0.8 μM, dobutamine 1 μM, metoprolol 1 μM
Protocol: Rat hearts were cannulated for isolated working heart perfusions as described in “An imbalance between glycolysis and glucose oxidation is a possible explanation for the detrimental effects of high levels of fatty acids during aerobic reperfusion of ischemic hearts.”, (J Pharmacol Exp Ther. 264:135 (1993); herein incorporated by reference. In brief, male Sprague-Dawley rats (0.3-0.35 kg) were anesthetized with pentobarbital sodium (60 mg/kg IP) and hearts were quickly excised, the aorta was cannulated and a retrograde perfusion at 37° C. was initiated at a hydrostatic pressure of 60 mm Hg. Hearts were trimmed of excess tissue, and the pulmonary artery and the opening to the left atrium were then cannulated. After 15 min of Langendorff perfusion, hearts were switched to the working mode by clamping the aortic inflow line from the Langendorff reservoir and opening the left atrial inflow line. The perfusate was delivered from an oxygenator into the left atrium at a constant preload pressure of 11 mm Hg. Perfusate was ejected from spontaneously beating hearts into a compliance chamber (containing 1 ml of air) and into the aortic outflow line. The afterload was set at a hydrostatic pressure of 80 mm Hg. All working hearts were perfused with Krebs'-Henseleit solution containing calcium 2.5 mmol/L, glucose 5.5 mmol/L, 3% bovine serum albumin (Fraction V, Boehringer Mannheim), and with 1.2 mmol/L palmitate. Palmitate was bound to the albumin as described previously (Saddik M., et al. J Biol. Chem. 267:3825-3831 (1992)). The perfusate was recirculated, and pH was adjusted to 7.4 by bubbling with a mixture containing 95% O2 and 5% CO2. For the aerobic model hearts, all tested compounds were introduced into the heart 5 minutes into the working mode following Langendorff Perfusion.
Glycolysis and glucose oxidation were measured simultaneously by perfusing hearts with [5-^3H/U-^14C] glucose (Liu H., et al. Am J Physiol. 270:H72-H80 (1996); Taegtmeyer Het al. Am J Cardiol. 80:3A-10A (1997)). The total myocardial ^3H2O production and ^14CO2 production were determined at 10 minute intervals for the entirety of the aerobic period, 60 minutes for normal hearts and 30 minutes for the global ischemia and low flow demand ischemia models. In the global ischemia model, the total myocardial ^3H2O and ^14CO2 production were determined at 20 minute intervals for the 60 minute reperfusion period. In the low flow demand ischemia model, the total myocardial ^3H2O and ^14CO2 production were determined at 10 minute intervals for the 30 minute reperfusion period. Glucose oxidation rates were determined by quantitative measurement of ^14CO2 production as described previously (Barbour R. L., et al. Biochemistr. 1923:6503-6062 (1984)).

[1] = tested on: isolated rat hearts subjected to global ischemia; experiment: Isolated working rat heart, global no flow ischemia and reperfusion: cardiac function and efficiency
Protocol: (§1) Hearts were trimmed of excess tissue, and the pulmonary artery and the opening to the left atrium were then cannulated. After 15 min of Langendorff perfusion, hearts were switched to the working mode by clamping the aortic inflow line from the Langendorff reservoir and opening the left atrial inflow line. The perfusate was delivered from an oxygenator into the left atrium at a constant preload pressure of 11 mm Hg. […] The afterload was set at a hydrostatic pressure of 80 mm Hg. […] Palmitate was bound to the albumin as described previously ([…]., et al. J Biol. Chem. 267:3825-3831 (1992)). […] For the aerobic model hearts, all tested compounds were introduced into the heart 5 minutes into the working mode following Langendorff Perfusion. Spontaneously beating hearts were used in all perfusions. Heart rate and aortic pressure were measured with a Biopac Systems Inc. blood pressure transducer connected to the aortic outflow line. Cardiac output and aortic flow were measured with Transonic […] ultrasonic flow probes in the preload and afterload lines, respectively. Coronary flow was calculated as the difference between cardiac output and aortic flow. […] Cardiac work was calculated as the product of systolic pressure and cardiac output. Cardiac efficiency was defined as a ratio of cardiac work to MVO2. […] All tested compounds were introduced into the perfusate five minutes prior to reperfusion.

[2] = tested on: isolated rat hearts subjected to low flow demand ischemia; experiment: Isolated working rat heart, low flow demand ischemia: cardiac function and efficiency; conditions: for Aortic Outflow / Cardiac Output / Coronary Flow / HR × PSP / Heart Rate / Peak Systolic Pressure: DCA 2 mM, diltiazem 0.8 μM, metoprolol 1 μM
Protocol: as §1, with “into initiation of aerobic perfusion.” for “prior to reperfusion.”

[3] = post-ischemic reperfusion, DCA 2 mM, digoxin 3 nM, metoprolol 1 μM
[4] = low flow ischemia: aerobic period
[5] = low flow ischemia: ischemic period

In the case of `COCCc1ccc(OCC(O)CNC(C)C)cc1` (stereo not shown) [Metoprolol, metoprolol], the glucose oxidation rates (isolated rat hearts; FIG. 1, 3, 5, 7, control 361±43) is reported as 651±222, the “glycolytic rates (glycolysis)” value (isolated rat hearts; FIG. 2, 4, 6, 8, control 3.430±0.604) is reported as 4.530±0.876 and the “Aortic Outflow” value [1, 3] is reported as 11 ± 5 mL/min. For the same compound, the “Cardiac Output” value [1, 3] was 24 ± 9 mL/min, the “Coronary Flow” value [1, 3] was 13 ± 4 mL/min and the “HR × PSP” value [1, 3] was 13 ± 6 beats · min^−1 · mmHg · 10^−2. The “Heart Rate” value [1, 3] was 185 ± 40 beats · min^−1, the “Peak Systolic Pressure” value [1, 3] was 73 ± 17 mmHg and the “functional parameters (cardiac function, cardiac efficiency) during the reperfusion period compared to control (Table 1, Table 2), in words” value ([1]; reperfusion period) was “significantly improved”. For the same compound, the “recovery of cardiac function of previously ischemic hearts compared to control, in words” value ([1]; reperfusion period, FIG. 11, FIG. 17) was “does not change cardiac function”, the “recovery of cardiac work of previously ischemic hearts compared to control, in words” value ([1]; reperfusion period, FIG. 12, FIG. 18) was “significantly improve the recovery” and the “recovery of oxygen consumption of previously ischemic hearts, in words” value ([1]; reperfusion period, FIG. 13, FIG. 19) was “There does not appear to be significant differences”. The “recovery of cardiac efficiency of previously ischemic hearts compared to control, in words” value ([1]; reperfusion period, FIG. 14, FIG. 20) was “does not”, the “cardiac work, in words” value ([2]; low flow demand ischemia, FIG. 24, FIG. 30) was “no significant changes” and the “oxygen consumption, in words” value ([2]; low flow demand ischemia, FIG. 25, FIG. 31) was “no significant changes”. The “peak systolic pressure, effect in words” value ([2]; low flow demand ischemia, Table 1) was “no significant increase”, the “heart rate, effect in words” value ([2]; low flow demand ischemia, Table 1, compared to control) was “no significant increase” and the “coronary flow (coronary outflow), effect in words” value ([2]; low flow demand ischemia, Table 2) was “no significant increase”. The “Aortic Outflow” value [2, 4] was 25 ± 2 mL/min, the “Cardiac Output” value [2, 4] was 47 ± 2 mL/min and the “Coronary Flow” value [2, 4] was 22 ± 1 mL/min. For the same compound, the “HR × PSP” value [2, 4] was 30 ± 2 beats · min^−1 · mmHg · 10^−2, the “Heart Rate” value [2, 4] was 216 ± 10 beats · min^−1 and the “Peak Systolic Pressure” value [2, 4] was 141 ± 7 mmHg. The “Aortic Outflow” value [2, 5] was 17 ± 3 mL/min, the “Cardiac Output” value [2, 5] was 31 ± 4 mL/min and the “Coronary Flow” value [2, 5] was 14 ± 1 mL/min. The “HR × PSP” value [2, 5] was 30 ± 2 beats · min^−1 · mmHg · 10^−2, the “Heart Rate” value [2, 5] was 216 ± 10 beats · min^−1 and the “Peak Systolic Pressure” value [2, 5] was 141 ± 7 mmHg. The “cardiac function, in words” value ([2]; low-flow ischemic period, FIG. 23, FIG. 29) was “no significant changes”.
